The text below walks through data of patent US10501453B2, “Benzothiazole or benzoxazole compounds as SUMO activators” (Icahn School of Medicine at Mount Sinai, priority 2012, dated 2019).

Structures are written as SMILES. Converted amounts (≈) assume the structure as drawn.

For orientation: solubility means the dissolved amount per volume that the medium holds. The fold induction is the ratio of treated to control signal. A high value points to a large rise in signal.

In one data set the test system is YFP-SUMO1. Nature of the data set: YFP-SUMO1 accumulation (cell image) in HEK-293 cells expressing YFP-SUMO1 and pcDNA3.0-SERCA2a. Particulars: increase vs. DMSO; for YFP accumulation: 10 μM, 24 hours; for fold induction at 10 µM: Homo sapiens, HEK293, 24 hours. It is filed as cell-based. The source says: (§1) The following antibodies were used for immunoblotting and immunoprecipitation (IP): polyclonal anti-SERCA2a (21th century Biochem Inc.), monoclonal anti-GAPDH (Sigma-Aldrich, catalog no. G8795), monoclonal anti-SUMO 1 (Cell Signaling Technology Inc., catalog no. 4930), anti-mouse horseradish peroxidase (HRP) (Pierce Biotechnology Inc., catalog no. 32430), and anti-rabbit HRP (Pierce Biotechnology Inc., catalog no. 32460). YFP-tagged SUMO1, pcDNA3.0-SERCA2a, and HA-tagged Ubc9 plasmids were used for the transfection. The plasmid DNA was amplified in the Escherichia coli strain DH5a and extracted by using a commercial purification kit (Qiagen, catalog no. 12263). Purified plasmid was resuspended in sterile TE buffer (10 mM Tris-HCl and 1 mM EDTA, pH 7.6). Only the preparation highest purity (A260/A280>1.8) was used for transfection. 1 μg of each plasmid was used for transfection. HEK-293 cells (American Type Culture Collection, catalog no. CRL-1873) were grown at 37° C. and under a 5% CO2 humidified atmosphere in Dulbecco's modified Eagle's medium (DMEM, Cellgro, catalog no. 10-0 13-CM) containing 10% fetal bovine serum (SAFC Bioscience, catalog no. 12107) and 100 i.u of penicillin/ml and 100 μg of streptomycin/ml. HEK-293 cells were seeded at a density of 3-5×10^5 cells per 60 mm culture dish in DMEM. The cells were transiently transfected using Lipofectamine 2000 (Invitrogen, catalog no. 11668) with indicated expression plasmids. After 24 hours, the cells were treated with either small molecules or dimethyl sulfoxide (DMSO, Sigma-Aldrich, catalog no. D2650).
(§2) Each compound was added at 10 μM. DMSO was used as a control. After 24 hours at 37° C., SERCA2a SUMOylation and functional analysis were determined.
Cellular permeability and potential activity of the compounds were examined by tracking of the YFP-SUMO1. HEK-293 cells expressing YFP-SUMOI and pcDNA3.0-SERCA2a were incubated with either 10 μM DMSO or 10 μM small molecules for 24 hours at 37° C. Fluorescent signals were monitored by fluorescence microscopy. HA-tagged Ubc9 expressing cells were served as a positive control.
The ability of the Example compound to SUMOylate SERCA2a was examined using an in vitro system in HEK 293 cells where both SERCA2a and SUMO 1 are expressed. The cellular permeability and potential activity of the Example compounds was examined by tracking of the YFP-SUM01. HEK-293 cells expressing YFP-SUM01 and pcDNA3.0-SERCA2a were treated with either 10 μM DMSO or 10 μM indicated Example 1 for 24 hrs. Fluorescent signals were monitored by fluorescence microscopy. HA-Ubc9 expressing cells were served as a positive control. The SERCA2a SUMOylation profiling was then analyzed by using the same cells (FIG. 1B, WCL, whole cell lysates; S-SERCA2a, SUMOylated SERCA2a).

The test system of a further data set is HEK-293 cells. Description: Toxicity (Table 2; cytotoxicity in the compound screen).
A further data set has as its system SERCA2a. Description: SERCA2a SUMOylation assay in HEK-293 cells (immunoprecipitation/immunoblotting). It is filed as cell-based. The note with it: compared with DMSO control; 10 μM.
Excerpt: as §1, §2
Equal amounts of protein from either small molecule treated or DMSO treated cells or immunoprecipitates were resolved by 7.5% SDS-PAGE and transferred to nitrocellulose membranes (Bio-Rad, catalog no. 162-0112). The membranes were blocked for 1 hour at room temperature with 5% non-fat milk (Cell Signaling Technology Inc., catalog no. 9999) in TBST (10 mM Tris-HCl, 150 mM NaCl, and 0.05% tween-20, pH 8.0). The blots were incubated with specific primary antibodies at 4° C. for overnight. The blots were then washed five times for 10 minutes each with TBST and incubated for 1 hour with HRP-conjugated secondary antibodies in TBST with 5% non-fat milk. After five times TBST washes, the protein bands were visualized with enhanced chemiluminescence (Pierce Biotechnology Inc., catalog no. 32132) and exposed to x-ray film (Denville Scientific Inc., catalog no. E3012). GAPDH expression provided an internal control.
Post-transfection (48 hours), the HEK-293 cells were rinsed twice with phosphate-buffered saline (PBS, Cellgro, catalog no. 21-040-CM) and lysed in 1% Nonidet P-40 lysis buffer (Boston Bioproducts, catalog no. BP-119) with 10 mM N-ethylmaleimide (NEM, Sigma-Aldrich, catalog no. N3876) and […] inhibitor cocktail (Complete Mini Tablet, Roche Applied Science, catalog no. 11836153001). 2 mg of protein were mixed with the anti-SERCA2a antibodies for overnight at 4° C. in lysis buffer. Pre-washed protein A-Separose beads (Pierce Biotechnology Inc., catalog no. 20333) was added to each sample and incubated 1 hour at 4° C. with gentle rocking. Immunocomplexes were washed with lysis buffer three times and precipitated by centrifugation at 12000×g for 10 seconds. The immunocomplexes were resuspended in SDS sample buffer and subjected to immunoblotting. Controls for the immunoprecipitations were performed using an anti-rabbit IgG equal to that of the primary precipitating antibody. Ten percent of whole cell lysates used in the immunoprecipitation was loaded for subsequent immunoblotting.
The ability of the Example compound to SUMOylate SERCA2a was examined using an in vitro system in HEK 293 cells where both SERCA2a and SUMO 1 are expressed. […]
(A western blot detects proteins with antibodies after separation by electrophoresis.)

[1] abbreviates: DMSO, organic solvent or mixture.

As for `COc1cccc(-c2nnc(Nc3nc4ccc(F)cc4s3)o2)c1` [Example 13, N-(6-fluorobenzo[d]thiazol-2-yl)-5-(3-methoxyphenyl)-1,3,4-oxadiazol-2-amine], in the data set on YFP-SUMO1, the YFP accumulation result is “Active”. For the same compound, in “Solubility (Table 2)” (setting [1]), the solubility is under 2.5 mM. This compound returned a Toxicity in the data set with HEK-293 cells of over 50%. In addition, the “SERCA2a SUMOylation” value with SERCA2a is reported as “Not statistically significant”.

Regarding `COc1ccc(-c2nnc(Nc3nc4cc(OC)ccc4s3)o2)cc1` [Example 16, N-(5-methoxybenzo[d]thiazol-2-yl)-5-(4-methoxyphenyl)-1,3,4-oxadiazol-2-amine], the YFP accumulation result in the data set on YFP-SUMO1 was “Active”. Further, the solubility in the data set “Solubility (Table 2)” (setting [1]) was under 2.5 mM. Besides, the Toxicity in the data set on HEK-293 cells is over 50%. Besides, the “SERCA2a SUMOylation” value in the data set with SERCA2a is given as “Not statistically significant”.

Turning to `COc1ccc(-c2nnc(Nc3nc4ccc(SC)cc4s3)o2)cc1` [Example 18, 5-(4-methoxyphenyl)-N-(6-(methylthio)benzo[d]thiazol-2-yl)-1,3,4-oxadiazol-2-amine], the YFP accumulation result with YFP-SUMO1 was “Active”. For the same compound, the solubility in “Solubility (Table 2)” (setting [1]) is under 2.5 mM. This compound gave a Toxicity in the data set on HEK-293 cells of over 50%. The “SERCA2a SUMOylation” value in the data set with SERCA2a is “Not statistically significant”.

In the data set on YFP-SUMO1, `COc1ccc(-c2nnc(Nc3nc4cc(OC)c(OC)cc4s3)o2)cc1` [Example 17, N-(5,6-dimethoxybenzo[d]thiazol-2-yl)-5-(4-methoxyphenyl)-1,3,4-oxadiazol-2-amine] showed a fold induction at 10 µM of 2.2. The solubility in the data set “Solubility (Table 2)” (setting [1]) amounted to 5 mM (≈ 1920 µg/mL). Also, the Toxicity entry in the data set with HEK-293 cells is recorded as “Non-toxic”. In addition, the “SERCA2a SUMOylation” value in the data set on SERCA2a is “Not statistically significant”.

For `Fc1ccc2nc(Nc3nnc(-c4ccccc4Cl)o3)sc2c1` [Example 11, 5-(2-chlorophenyl)-N-(6-fluorobenzo[d]thiazol-2-yl)-1,3,4-oxadiazol-2-amine], the YFP accumulation entry in the data set on YFP-SUMO1 is listed as “Active”. Also, the solubility in the data set “Solubility (Table 2)” (setting [1]) is under 2.5 mM. The same compound came in with a Toxicity in the data set with HEK-293 cells of over 50%. For the same compound, the “SERCA2a SUMOylation” value with SERCA2a is “Not statistically significant”.

With `COc1ccc(-c2nnc(Nc3nc4c(OC)cccc4s3)o2)c(OC)c1` [Example 6, 5-(2,4-dimethoxyphenyl)-N-(4-methoxybenzo[d]thiazol-2-yl)-1,3,4-oxadiazol-2-amine], the fold induction at 10 µM with YFP-SUMO1 worked out at 2.93. Moreover, the solubility in the data set “Solubility (Table 2)” (setting [1]) amounted to 10 mM (≈ 3840 µg/mL). In the data set on HEK-293 cells, this compound gave a Toxicity of 30%. Besides, the “SERCA2a SUMOylation” value in the data set with SERCA2a is reported as “Not statistically significant”.

Regarding `COc1cccc(-c2nnc(Nc3nc4cc(OC)ccc4s3)o2)c1` [Example 15, N-(5-methoxybenzo[d]thiazol-2-yl)-5-(3-methoxyphenyl)-1,3,4-oxadiazol-2-amine], in the data set with YFP-SUMO1, the YFP accumulation entry is “Active”. Also, the solubility in the data set “Solubility (Table 2)” (setting [1]) is under 2.5 mM. This compound also had a Toxicity with HEK-293 cells of over 50%. Further, in the data set on SERCA2a, the “SERCA2a SUMOylation” value is listed as “Not statistically significant”.

On to `Fc1cccc2sc(Nc3nnc(-c4ccccc4)o3)nc12` [Example 7, N-(4-fluorobenzo[d]thiazol-2-yl)-5-phenyl-1,3,4-oxadiazol-2-amine], for which, in the data set on YFP-SUMO1, the fold induction at 10 µM amounted to 2.2. Also, the solubility in the data set “Solubility (Table 2)” (setting [1]) came to 10 mM (≈ 3120 µg/mL). The Toxicity entry in the data set on HEK-293 cells is given as “Non-toxic”. The “SERCA2a SUMOylation” value with SERCA2a is given as “Not statistically significant”.

Consider `COc1ccc(-c2nnc(Nc3nc4ccc(OC)cc4s3)o2)cc1` [Example 9, N-(6-methoxybenzo[d]thiazol-2-yl)-5-(4-methoxyphenyl)-1,3,4-oxadiazol-2-amine], for which, in the data set with YFP-SUMO1, the YFP accumulation result is “Active”. Besides, in “Solubility (Table 2)” (in DMSO (printed for the 10 mM cells)), the solubility entry was “Crystallized at 2.5”. The Toxicity result in the data set on HEK-293 cells is listed as “Toxic”. In addition, in the data set with SERCA2a, the “SERCA2a SUMOylation” value is “Not statistically significant”.

For `COc1ccc2nc(Nc3nnc(-c4ccccc4OC)o3)sc2c1` [Example 8, N-(6-methoxybenzo[d]thiazol-2-yl)-5-(2-methoxyphenyl)-1,3,4-oxadiazol-2-amine], in the data set on YFP-SUMO1, the fold induction at 10 µM is 2.37. The solubility in “Solubility (Table 2)” (setting [1]) amounted to 10 mM (≈ 3540 µg/mL). Also, the Toxicity in the data set on HEK-293 cells is recorded as 30%. The “SERCA2a SUMOylation” value with SERCA2a is recorded as “Not statistically significant”.

For `COc1cccc2sc(Nc3nnc(-c4ccc(F)cc4)o3)nc12` [Example 5, 5-(4-fluorophenyl)-N-(4-methoxybenzo[d]thiazol-2-yl)-1,3,4-oxadiazol-2-amine], the fold induction at 10 µM with YFP-SUMO1 was 2.54. Further, the solubility in “Solubility (Table 2)” (setting [1]) was found to be 10 mM (≈ 3420 µg/mL). In addition, in the data set on HEK-293 cells, the Toxicity entry was “Non-toxic”. The “SERCA2a SUMOylation” value in the data set on SERCA2a is on record as “Not statistically significant”.

For `Fc1ccc(-c2nnc(Nc3nc4ccc(F)cc4s3)o2)cc1` [Example 12, N-(6-fluorobenzo[d]thiazol-2-yl)-5-(4-fluorophenyl)-1,3,4-oxadiazol-2-amine], in the data set on YFP-SUMO1, the YFP accumulation entry is “Active”. The solubility in the data set “Solubility (Table 2)” (setting [1]) was under 2.5 mM. Moreover, the Toxicity in the data set with HEK-293 cells is on record as over 50%. Besides, in the data set on SERCA2a, the “SERCA2a SUMOylation” value is “Not statistically significant”.

Consider `COc1ccc2nc(Nc3nnc(-c4ccc(Cl)cc4)o3)sc2c1` [Example 10, 5-(4-chlorophenyl)-N-(6-methoxybenzo[d]thiazol-2-yl)-1,3,4-oxadiazol-2-amine], for which the YFP accumulation result in the data set on YFP-SUMO1 was “Active”. Moreover, in “Solubility (Table 2)” (setting [1]), the solubility is under 2.5 mM. This compound returned a Toxicity in the data set with HEK-293 cells of over 50%. For the same compound, the “SERCA2a SUMOylation” value with SERCA2a was “Not statistically significant”.
